This passage reports IC50 and Ki results from patent US8927500B2, “Peptidomimetic macrocycles” (Aileron Therapeutics, Inc., priority 2012, dated 2015).

Where only a bound is given, the exact number is not on record here.

One assay has as its target T1, MDMX (Homo sapiens, UniProt O15151).
T1 sequence (O15151 1-125): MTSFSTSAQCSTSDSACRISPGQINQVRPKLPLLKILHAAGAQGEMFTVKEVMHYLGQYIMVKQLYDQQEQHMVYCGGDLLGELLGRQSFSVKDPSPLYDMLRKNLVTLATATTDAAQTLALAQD
The assay can be described thus: Competitive fluorescence polarization assay for MDMX. It counts as binding. Particulars: competitive FP assay; for IC50: read-out: IC50 (MDMX); for Ki: read-out: Ki (MDMX).

In the next assay the target is MDM2 (Homo sapiens, UniProt Q00987). The assay can be described thus: Competitive fluorescence polarization assay for MDM2. In kind it is binding. Conditions: competitive FP assay, MDM2; for IC50: read-out: IC50 (MDM2); for Ki: read-out: Ki (MDM2).
MDM2, sequence (Q00987 1-125): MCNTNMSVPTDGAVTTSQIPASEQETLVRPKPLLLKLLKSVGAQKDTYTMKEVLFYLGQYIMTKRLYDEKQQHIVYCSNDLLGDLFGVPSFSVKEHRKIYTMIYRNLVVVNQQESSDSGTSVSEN

As usually defined, the IC50 is the concentration that inhibits the measured activity by half. As usually defined, the Ki is the dissociation constant of the complex between target and ligand, obtained from inhibition or displacement.

For the compound `CC(=O)N[C@@H](CC(C)C)C(=O)N[C@H](C(=O)N[C@@H](Cc1ccccc1)C(=O)N[C@]1(C)CCCCCCC=CCCC[C@@](C)(C(=O)N[C@@H](C)C(=O)N[C@@H](C)C(=O)N[C@@H](CC(C)C)C(=O)N[C@H](C)C(N)=O)NC(=O)[C@H](CC(C)C)NC(=O)[C@H](CCC(N)=O)NC(=O)[C@H](C)NC(=O)[C@H](Cc2c[nH]c3ccccc23)NC(=O)[C@H](Cc2ccc(O)cc2)NC(=O)[C@H](C)NC1=O)[C@@H](C)O` (single isomer, unassigned) [compound 215], on MDMX, the IC50 lay in the range of 100 to 1000 nM and the Ki was 10 to 100 nM. Moreover, at MDM2, the IC50 was in the range of 10 to 100 nM and the inhibitory constant (Ki) is < 10 nM.
For `CC(=O)N[C@@H](CC(C)C)C(=O)N[C@H](C(=O)N[C@@H](Cc1ccccc1)C(=O)N[C@]1(C)CCCCCCC=CCCC[C@@](C)(C(=O)N[C@@H](C)C(=O)N[C@@H](C)C(=O)N[C@@H](CC(C)C)C(=O)N[C@H](C)C(N)=O)NC(=O)[C@H](CC(C)C)NC(=O)[C@H](CCC(N)=O)NC(=O)[C@H](C)NC(=O)[C@H](Cc2c[nH]c3ccccc23)NC(=O)[C@H](Cc2c[nH]cn2)NC(=O)[C@H](CCC(=O)O)NC1=O)[C@@H](C)O` (single isomer, unassigned) [compound 227], on MDMX, the IC50 lay in the range of 100 to 1000 nM and the Ki is 10 to 100 nM. On MDM2, the IC50 is < 10 nM and the inhibition constant (Ki) is < 10 nM.
Consider `CC(=O)N[C@@H](CC(C)C)C(=O)N[C@H](C(=O)N[C@@H](Cc1ccccc1)C(=O)N[C@]1(C)CCCCCCC=CCCC[C@@](C)(C(=O)N[C@@H](CO)C(=O)N[C@@H](C)C(=O)N[C@@H](C)C(N)=O)NC(=O)[C@H](CC2CCC2)NC(=O)[C@H](CCC(N)=O)NC(=O)[C@H](C)NC(=O)[C@H](Cc2c[nH]c3ccccc23)NC(=O)[C@H](Cc2ccc(C(=O)O)cc2)NC(=O)[C@H](CCC(=O)O)NC1=O)[C@@H](C)O` (single isomer, unassigned) [compound 291], for which the IC50 on MDMX and on MDM2 was 10 to 100 nM in each case. The Ki at MDMX and at MDM2 was < 10 nM throughout.
As for `CC(=O)N[C@@H](CC(C)C)C(=O)N[C@H](C(=O)N[C@@H](Cc1ccccc1)C(=O)N[C@]1(C)CCCCCCC=CCCC[C@@](C)(C(=O)N[C@@H](CO)C(=O)N[C@@H](C)C(=O)N[C@@H](C)C(N)=O)NC(=O)[C@H](CC2CCC2)NC(=O)[C@H](CCC(N)=O)NC(=O)[C@H](CO)NC(=O)[C@H](Cc2c[nH]c3ccccc23)NC(=O)[C@H](Cc2ccc(O)cc2)NC(=O)[C@H](CCC(=O)O)NC1=O)[C@@H](C)O` (single isomer, unassigned) [compound 293], the results for the IC50 on MDMX and on MDM2 were 10 to 100 nM and < 10 nM, respectively. In addition, the Ki at MDMX was 10 to 100 nM; at MDM2, < 10 nM.
Consider `CCCC[C@H](NC(=O)[C@H](C)NC(=O)[C@H](C)NC(=O)[C@]1(C)CCCC=CCCCCCC[C@@](C)(NC(=O)[C@H](Cc2ccc(F)c(F)c2)NC(=O)[C@@H](NC(=O)[C@H](CC(C)C)NC(C)=O)[C@@H](C)O)C(=O)N[C@@H](C)C(=O)N[C@@H](Cc2ccc(O)cc2)C(=O)N[C@@H](Cc2c[nH]c3ccccc23)C(=O)N[C@@H](C)C(=O)N[C@@H](CCC(N)=O)C(=O)N[C@@H](CCC(C)C)C(=O)N1)C(=O)N[C@@H](C)C(N)=O` (single isomer, unassigned) [compound 308], for which the IC50 at MDMX and at MDM2 was 100 to 1000 nM each time. The inhibition constant Ki on MDMX and on MDM2 was 10 to 100 nM throughout.
As to `CCCC[C@H](NC(=O)[C@H](C)NC(=O)[C@H](C)NC(=O)[C@]1(C)CCCC=CCCCCCC[C@@](C)(NC(=O)[C@H](Cc2ccccc2)NC(=O)[C@@H](NC(=O)[C@H](CC(C)C)NC(C)=O)[C@@H](C)O)C(=O)N[C@@H](C)C(=O)N[C@@H](Cc2ccc(C(=O)O)cc2)C(=O)N[C@@H](Cc2c[nH]c3ccccc23)C(=O)N[C@@H](C)C(=O)N[C@@H](CCC(N)=O)C(=O)N[C@@H](CCC(C)C)C(=O)N1)C(=O)N[C@@H](C)C(N)=O` (single isomer, unassigned) [compound 310], the IC50 at MDMX and at MDM2 was 10 to 100 nM each time. In addition, the values for the Ki at MDMX and at MDM2 were 10 to 100 nM and < 10 nM, respectively.
For `CCCC[C@H](NC(=O)[C@H](C)NC(=O)[C@H](C)NC(=O)[C@]1(C)CCCC=CCCCCCC[C@@](C)(NC(=O)[C@H](Cc2ccccc2)NC(=O)[C@@H](NC(=O)[C@H](CC(C)C)NC(C)=O)[C@@H](C)O)C(=O)N[C@@H](C)C(=O)N[C@@H](Cc2ccc(O)cc2)C(=O)N[C@@H](Cc2c[nH]c3ccccc23)C(=O)N[C@@H](CO)C(=O)N[C@@H](CCC(N)=O)C(=O)N[C@@H](CCC(C)C)C(=O)N1)C(=O)N[C@@H](C)C(N)=O` (single isomer, unassigned) [compound 312], the IC50 on MDMX lay within 100 to 1000 nM; on MDM2, 10 to 100 nM. The Ki at MDMX and on MDM2 was 10 to 100 nM in each case.
With `CC(=O)N[C@@H](C)C(=O)N[C@@H](CC(C)C)C(=O)N[C@H](C(=O)N[C@@H](Cc1ccccc1)C(=O)N[C@]1(C)CCCCCCC=CCCC[C@@](C)(C(=O)N[C@@H](CO)C(=O)N[C@@H](C)C(=O)N[C@@H](C)C(N)=O)NC(=O)[C@H](CC2CCC2)NC(=O)[C@H](CCC(N)=O)NC(=O)[C@H](C)NC(=O)[C@H](Cc2c[nH]c3ccccc23)NC(=O)[C@H](Cc2ccc(O)cc2)NC(=O)[C@H](CCC(=O)O)NC1=O)[C@@H](C)O` (single isomer, unassigned) [compound 328], at MDMX, the IC50 lay in the range of 10 to 100 nM and the Ki was in the range of 10 to 100 nM. Further, on MDM2, the IC50 fell in the range of 10 to 100 nM and the Ki was < 10 nM.
`CCCC[C@H](NC(=O)[C@H](C)NC(=O)[C@H](CO)NC(=O)[C@]1(C)CCCC=CCCCCCC[C@@](C)(NC(=O)[C@H](Cc2ccccc2)NC(=O)[C@@H](NC(=O)[C@H](CC(C)C)NC(C)=O)[C@@H](C)O)C(=O)N[C@@H](CCC(=O)O)C(=O)N[C@@H](Cc2ccc(C(=O)O)cc2)C(=O)N[C@@H](Cc2c[nH]c3cc(Cl)ccc23)C(=O)N[C@@H](C)C(=O)N[C@@H](CCC(N)=O)C(=O)N[C@@H](CC2CCC2)C(=O)N1)C(=O)N[C@@H](C)C(N)=O` (single isomer, unassigned) [compound 334]: at MDMX, the IC50 fell in the range of 10 to 100 nM and the Ki was < 10 nM. Besides, at MDM2, the IC50 was < 10 nM and the Ki was < 10 nM.
For `CCCC[C@H](NC(=O)[C@H](C)NC(=O)[C@H](C)NC(=O)[C@]1(C)CCCC=CCCCCCC[C@@](C)(NC(=O)[C@H](Cc2ccccc2)NC(=O)[C@@H](NC(=O)[C@H](CC(C)C)NC(C)=O)[C@@H](C)O)C(=O)N[C@@H](C)C(=O)N(C)[C@@H](Cc2ccc(O)cc2)C(=O)N[C@@H](Cc2c[nH]c3ccccc23)C(=O)N[C@@H](C)C(=O)N[C@@H](CCC(N)=O)C(=O)N[C@@H](CC(C)C)C(=O)N1)C(=O)N[C@@H](C)C(N)=O` (single isomer, unassigned) [compound 384], the values for the concentration for half-maximal inhibition (IC50) at MDMX and on MDM2 were > 1000 nM and 100 to 1000 nM, respectively. Further, the values for the Ki at MDMX and on MDM2 were > 1000 nM and 100 to 1000 nM, respectively.
Consider `CCCC[C@H](NC(=O)[C@H](C)NC(=O)[C@H](C)NC(=O)[C@]1(C)CCCC=CCCCCCC[C@@](C)(NC(=O)[C@H](Cc2ccccc2)NC(=O)[C@@H](NC(=O)[C@H](CC(C)C)NC(C)=O)[C@@H](C)O)C(=O)N[C@@H](C)C(=O)N[C@@H](Cc2ccc(O)cc2)C(=O)N(C)[C@@H](Cc2c[nH]c3ccccc23)C(=O)N[C@@H](C)C(=O)N[C@@H](CCC(N)=O)C(=O)N[C@@H](CC(C)C)C(=O)N1)C(=O)N[C@@H](C)C(N)=O` (single isomer, unassigned) [compound 386], for which the results for the IC50 on MDMX and on MDM2 were > 1000 nM and 100 to 1000 nM, respectively. The Ki on MDMX was > 1000 nM; on MDM2, 100 to 1000 nM.
As for `CCCC[C@H](NC(=O)[C@H](C)NC(=O)[C@H](C)NC(=O)[C@]1(C)CCCC=CCCCCCC[C@@](C)(NC(=O)[C@H](Cc2ccccc2)NC(=O)[C@@H](NC(=O)[C@H](CC(C)C)NC(C)=O)[C@@H](C)O)C(=O)N[C@@H](C)C(=O)N[C@@H](Cc2ccc(O)cc2)C(=O)N[C@@H](Cc2c[nH]c3ccccc23)C(=O)NC(C)(C)C(=O)N[C@@H](CCC(N)=O)C(=O)N[C@@H](CC(C)C)C(=O)N1)C(=O)N[C@@H](C)C(N)=O` (single isomer, unassigned) [compound 390], at MDMX, the half-inhibitory concentration (IC50) was in the range of 10 to 100 nM and the Ki was 10 to 100 nM. Moreover, on MDM2, the IC50 fell in the range of 10 to 100 nM and the inhibition constant (Ki) is < 10 nM.
Take `CCCC[C@H](NC(=O)[C@@H](C)NC(=O)[C@H](C)NC(=O)[C@]1(C)CCCC=CCCCCCC[C@@](C)(NC(=O)[C@H](Cc2ccccc2)NC(=O)[C@@H](NC(=O)[C@H](CC(C)C)NC(C)=O)[C@@H](C)O)C(=O)N[C@@H](C)C(=O)N[C@@H](Cc2ccc(O)cc2)C(=O)N[C@@H](Cc2c[nH]c3ccccc23)C(=O)N[C@@H](C)C(=O)N[C@@H](CCC(N)=O)C(=O)N[C@@H](CC(C)C)C(=O)N1)C(=O)N[C@@H](C)C(N)=O` (single isomer, unassigned) [compound 394]: on MDMX, the IC50 lay within 10 to 100 nM and the Ki was < 10 nM. In addition, at MDM2, the IC50 was < 10 nM and the inhibitory constant (Ki) was < 10 nM.
For `CCCC[C@H](NC(=O)[C@H](C)NC(=O)[C@H](C)NC(=O)[C@]1(C)CCCC=CCCCCCC[C@@](C)(NC(=O)[C@H](Cc2ccccc2)NC(=O)[C@@H](NC(=O)[C@H](CC(C)C)NC(C)=O)[C@@H](C)O)C(=O)N[C@@H](C)C(=O)N[C@@H](Cc2ccc(O)cc2)C(=O)N[C@@H](Cc2c[nH]c3ccccc23)C(=O)N[C@@H](C)C(=O)N[C@@H](CCC(N)=O)C(=O)N[C@@H](CC(C)C)C(=O)N1)C(=O)NC(C)(C)C(N)=O` (single isomer, unassigned) [compound 398], on MDMX, the IC50 is 10 to 100 nM and the Ki lay within 10 to 100 nM. For the same compound, at MDM2, the concentration for half-maximal inhibition (IC50) lay in the range of 10 to 100 nM and the Ki is < 10 nM.
